For data set [1], the system named is A375 tumors. As to the kind of experiment: A375 melanoma tumor growth in NSG mice. In kind it is in vivo. Here is the method: G9 suppresses Usp9x activity in A375 melanoma cells. The effect of G9 on the growth of A375 tumors in NSG mice was examined. Two million A375 cells in Matrigel: cell culture media (1:1) in 0.1 mL were injected subcutaneously in the dorsal region of 9 female NSG mice. After tumor growth to a measurable level (2 weeks post inoculation) animals were separated into 3 groups and mice received 0, 7.5 or 15 mg/kg G9 (prepared as described above) daily by IP injection for 8 days. Tumor volume (left) and animal weight (right) were measured every other day throughout the treatment interval and are reported in FIG. 6. […] Three animals per treatment group were evaluated in this study. Each data point represents the average+/−S.D. of measurements made in three mice. P-values were calculated using GraphPad Instat. P-values<0.05 are considered significant.
A375 tumors grown as subcutaneous implants in NSG mice were separated into three groups and received once daily ip injections with vehicle control (PEG300/DMSO) or G9 at doses of 7.5 or 15 mg/kg. Tumor growth, animal weight, behavior and mobility were monitored during treatment.

The test system of data set [2] is MM1.S tumor. As to the kind of experiment: MM1.S tumor growth in NSG mice. It counts as in vivo, NOD/SCID/gamma-2 knockout mice (NSG). Here is the method: Ten million MM1.S tumor cells were injected into the dorsal region of twenty female NOD/SCID/gamma-2 knockout mice (NSG) weighing ˜20 grams each. After 3 weeks tumors became visible and measurable with calipers. Mice were separated into four groups of 5 mice each and IP injected with G9 dissolved in 55% dimethyl sulfoxide, 25% polyethylene glycol 300, 20% phosphate-buffered saline at dose levels of 0, 2.5, 5 and 10 mg/kg mouse body weight. Animals were injected once per day for 14 days and tumor growth (measured with calipers) and animal weight were monitored over the treatment interval. The resulting changes in tumor growth for each group are shown and represented as the average+/−standard error of the mean for each group. The p-values were calculated using GraphPad InStat. P-values lower than 0.05 are considered significant. […] Animal weight was not affected by G9 injection in any of the mice. […] Twenty female NSG mice were inoculated subcutaneously with 10 million MM1.S cells in Matrigel and cell culture media (1:1) in a total volume of 0.1 mL. When tumors were measurable with calibers (3 weeks post tumor cell injection), mice were divided into 4 groups of five mice each and treated with the dose of G9 indicated. Tumor growth (left) and animal weight (right) were recorded at the interval noted. The results represent the average+/−SD of 5 animals per data point. P-values <0.05 are considered significant and were calculated using GraphPad InStat.
A second animal study was conducted in NSG mice with mice receiving higher dose levels of G9. Tumor inoculation and compound administration were similar to those utilized in the lower dose study. However, 3 mice per treatment group were used in this study and additional G9 doses were tested for safety and efficacy. […] NSG mice were inoculated with MM1.S tumors as described in FIG. 7. When tumors were measurable with calipers, mice were placed into 5 groups of 3 mice each and treated with G9 at 0, 5, 10, 15 and 20 mg/kg for 12 days with daily injection. Tumor size (left) and animal weight (right) were recorded over the treatment interval. […] The result of G9 treatment is also depicted as tumor volume over time for each treatment group (FIG. 4—top). Tumors extracted from each of the three mice in each treatment group following the last injection were photographed and shown in FIG. 4 (bottom). […] Control and treated mouse tumor sizes are shown on the left. Bars from left to right in each treatment group represent tumor size after 0, 4, 6, 8 and 11 days of treatment. Each bar represents the average+/−S.D. of measurements made in 3 mice per group. The significance of change in tumor volume between treated and control mice was calculated using GraphPad InStat. P-values<0.05 are considered significant. On the bottom, tumors were extracted from control and treated mice and photographed. Each row illustrates tumor from each of the three mice in the treatment group noted on the top of each row.

Setting [3] is: 7.5 or 15 mg/kg daily IP for 8 days.

“Also recorded” adds a separate entry of the source.

As for `CCCC(NC(=O)/C(C#N)=C/c1nc(Cl)ccc1Cl)c1ccc(OCCN2CCOCC2)cc1` (stereo not drawn) [Compound G9, (E)-2-Cyano-3-(3,6-dichloropyridin-2-yl)-N-(1-(4-(2-morpholinoethoxy)phenyl)butyl)acrylamide], the “side effects: behavior and mobility” value in data set [1] (7.5 or 15 mg/kg daily IP) was “did not observe changes in behavior or mobility; also recorded: did not have any notable side effects”. Besides, in data set [1] (setting [3]), the A375 tumor growth entry is given as “suppressed A375 tumor growth; also recorded: completely suppressed tumor growth; also recorded: reduced tumor growth”. Further, the animal weight entry is “modest impact on animal weight; also recorded: not significantly different” in data set [1] (setting [3]); “not affected” in data set [2] (IP once per day for 14 days, 2.5, 5 and 10 mg/kg); “some weight loss” in data set [2] (daily injection for 12 days, 10-20 mg/kg). In addition, the MM1.S tumor growth result in data set [2] (IP once per day for 14 days, 2.5, 5 and 10 mg/kg (all doses)) is given as “reduced MM1.S tumor growth”; in data set [2] (daily injection for 12 days, 5, 10, 15 and 20 mg/kg (all doses)) it was “suppressed MM1.S tumor growth”. In addition, in data set [2] (IP once per day for 14 days, 5 and 10 mg/kg), the “MM1.S tumor growth compared to controls” value was “significant reduction in MM1.S tumor growth”. Also, the MM1.S tumor size entry in data set [2] (daily injection for 12 days, 15 and 20 mg/kg) was “tumor regression”.

(Values after US9868736B2, “Deubiquitinase inhibitors and methods for use of the same” (THE REGENTS OF THE UNIVERSITY OF MICHIGAN, priority 2013, dated 2018).)
